Experiment [1] has as its target P2Y purinoceptor 12 (Homo sapiens) (UniProt Q9H244). The experiment is described as follows: Antagonist activity at P2Y12 receptor assessed as platelet aggregation at 30 uM by washed platelet assay. The format is functional.
Experiment [2] is described as follows: Antagonist activity at P2Y12 receptor assessed as platelet aggregation by washed platelet assay.

Chain of P2Y purinoceptor 12 (Homo sapiens) (Q9H244 whole entry): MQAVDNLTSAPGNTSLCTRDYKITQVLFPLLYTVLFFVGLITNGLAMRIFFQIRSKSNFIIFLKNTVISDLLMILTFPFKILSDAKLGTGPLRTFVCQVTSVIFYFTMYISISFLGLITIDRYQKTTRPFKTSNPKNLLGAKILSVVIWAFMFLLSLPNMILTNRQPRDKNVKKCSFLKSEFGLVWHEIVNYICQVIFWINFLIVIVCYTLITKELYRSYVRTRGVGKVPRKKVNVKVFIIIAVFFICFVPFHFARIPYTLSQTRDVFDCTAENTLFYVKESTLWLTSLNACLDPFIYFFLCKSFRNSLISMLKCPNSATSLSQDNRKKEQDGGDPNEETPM

As usually defined, the inhibition is the percentage by which the read-out fell short of the control. Take `CCNC(=O)Nc1ncnc2c1ncn2[C@@H]1O[C@H](CNC(=O)c2[nH]c(C)c(C(C)=O)c2C)[C@H]2O[C@H](/C=C/c3ccccc3)O[C@H]21`: the inhibition in experiment [1] was 53%.

As to `CCNC(=O)Nc1ncnc2c1ncn2[C@@H]1O[C@H](CNCc2nccs2)[C@H]2O[C@H](/C=C/c3ccccc3)O[C@H]21`, the inhibition in experiment [1] came out at 73%. With `CCCCCCCSC[C@H]1O[C@@H](n2cnc3c(NC(=O)NCC)ncnc32)[C@@H]2O[C@@H](/C=C/c3ccccc3)O[C@@H]21`, the inhibition in experiment [1] stood at 38%. Regarding `CCNC(=O)Nc1ncnc2c1ncn2[C@@H]1O[C@H](CN(CC2CC2C(=O)OCC)CC2CC2C(=O)OCC)[C@H]2O[C@H](/C=C/c3ccccc3)O[C@H]21` (stereo not given in full), the inhibition in experiment [1] amounted to 46%. Turning to `CCNC(=O)Nc1ncnc2c1ncn2[C@@H]1O[C@H](CSCCO)[C@H]2O[C@H](/C=C/c3ccccc3)O[C@H]21`, in experiment [1], the inhibition worked out at 63%.

As for `CCNC(=O)Nc1ncnc2c1ncn2[C@@H]1O[C@H](CSCC(C)O)[C@H]2O[C@H](/C=C/c3ccccc3)O[C@H]21` (stereo not given in full), the inhibition in experiment [1] amounted to 76%. Regarding `CCNC(=O)Nc1ncnc2c1ncn2[C@@H]1O[C@H](CSC)[C@H]2O[C@H](/C=C/c3ccccc3)O[C@H]21`, in experiment [1], the inhibition turned out to be 63%. Still for that read-out and setting: to `CCNC(=O)Nc1ncnc2c1ncn2[C@@H]1O[C@H](CNC/C(C)=C/C(=O)OCC)[C@H]2O[C@H](/C=C/c3ccccc3)O[C@H]21` belongs 70%. For the compound `CCNC(=O)Nc1ncnc2c1ncn2[C@@H]1O[C@H](CNCc2ccccc2O)[C@H]2O[C@H](/C=C/c3ccccc3)O[C@H]21`, in experiment [1], the inhibition worked out at 70%.

As a reminder, the IC50 is the concentration at which inhibition is half-maximal. Regarding `CCNC(=O)Nc1ncnc2c1ncn2[C@@H]1O[C@H](COP(=O)(O)O)[C@H]2O[C@H](/C=C/c3ccccc3)O[C@H]21` [REGRELOR DISODIUM], the half-inhibitory concentration (IC50) in experiment [2] was found to be 16 nM. Regarding `CCNC(=O)Nc1ncnc2c1ncn2[C@@H]1O[C@H](CSCCCS(=O)(=O)O)[C@H]2O[C@H](/C=C/c3ccccc3)O[C@H]21`, the inhibition in experiment [1] amounted to 90%. As to `CCNC(=O)Nc1ncnc2c1ncn2[C@@H]1O[C@H](CS(=O)(=O)CC(O)CO)[C@H]2O[C@H](/C=C/c3ccccc3)O[C@H]21` (stereo not given in full), in experiment [1], the inhibition is 14%. Same read-out and setting: then `CCCS(=O)(=O)C[C@H]1O[C@@H](n2cnc3c(NC(=O)NCC)ncnc32)[C@@H]2O[C@@H](/C=C/c3ccccc3)O[C@@H]21`, with 65%; and `CCNC(=O)Nc1ncnc2c1ncn2[C@@H]1O[C@H](CS(=O)(=O)CCO)[C@H]2O[C@H](/C=C/c3ccccc3)O[C@H]21`, with 57%; and `CCCSC[C@H]1O[C@@H](n2cnc3c(NC(=O)NCC)ncnc32)[C@@H]2O[C@@H](/C=C/c3ccccc3)O[C@@H]21`, with 52%.

The values are drawn from ChEMBL document CHEMBL1143248, “Adenosine analogues as inhibitors of P2Y12 receptor mediated platelet aggregation” (Bioorg Med Chem Lett, 2008).
